Source: patent publication US12269826B1, “7H-pyrido[4′,3′:4,5]pyrrolo[2,3-c][1,7]naphthyridine compounds as CK2 inhibitors” (KING FAISAL UNIVERSITY, priority 2023, dated 2025)

How the values were obtained:
HCT116 (colon) = assay: In vitro cytotoxic activity (MTT) assay, HCT116; format: cell-based; conditions: Homo sapiens, HCT-116; cells exposed for 96 hours; 50% inhibition of cell proliferation; read-out: Cytotoxicity activity IC50, HCT116 (colon)
Protocol: (§1) Compounds 1-16 were screened for their in vitro cytotoxic activity utilizing a 3-(4,5-dimethyl-thiazol-2-yl)-2,5-diphenyltetrazolium bromide (MTT) assay against selected cancer human cell lines consisting of PC3 (prostate), HCT116 (colon), A375 (melanoma), H1299 (lung), MIAPaCa-2 (pancreas), HL60 (leukemia), MCF7 (breast), MDA-MB-231 (breast) (T. Mosmann, J. Immunol. Meth., 1983, 65, 55-63). The cells were cultured at 37° C. in RMPI1640 medium supplemented with 10% fetal bovine serum, 50 IU/mL penicillin, and 50 μg/mL streptomycin in a 5% CO2 incubator. All cells were sub-cultured 3 times/week by trypsinisation. Viable cells were seeded and allowed to adhere for 12 h before a test drug was added in 96-well plates at an initial density of 1.0×10^5 cells/mL. Tumor cell lines were separately exposed to various concentrations of the tested compounds followed by incubation at a temperature of 37° C. during 96 hours inside a medium of fresh RMPI 1640. Cells were subsequently incubated at 37° C. using MTT at 0.5 mg/mL during 4 hours. After removal of supernatant, formazan crystals were dissolved in isopropanol and the optical density was measured at 570 nm. CX-4945 was used as a positive control.

MCF7 (breast) = assay: In vitro cytotoxic activity (MTT) assay, MCF7; format: cell-based; conditions: Homo sapiens, cells exposed for 96 hours, 50% inhibition of cell proliferation, read-out: Cytotoxicity activity IC50, MCF7 (breast)
Protocol: as §1

A375 (melanoma) = assay: In vitro cytotoxic activity (MTT) assay, A375; format: cell-based; conditions: Homo sapiens, A-375; cells exposed for 96 hours; 50% inhibition of cell proliferation; read-out: Cytotoxicity activity IC50, A375 (melanoma)
Protocol: as §1

HL60 (leukemia) = assay: In vitro cytotoxic activity (MTT) assay, HL60; format: cell-based; conditions: Homo sapiens, HL-60; cells exposed for 96 hours; 50% inhibition of cell proliferation; read-out: Cytotoxicity activity IC50, HL60 (leukemia)
Protocol: as §1

[1] = biological target: T1, recombinant human CK2 (RRββ-holoenzyme) (Homo sapiens, UniProt P68400); assay: CK2 Kinase Assay (33P-ATP, filter plate); format: biochemical; conditions: final ATP concentration 15 μM; 10 min at 30° C.; read-out: protein kinase CK2 IC50
T1 construct: purchased Millipore
T1 sequence (P68400 whole entry): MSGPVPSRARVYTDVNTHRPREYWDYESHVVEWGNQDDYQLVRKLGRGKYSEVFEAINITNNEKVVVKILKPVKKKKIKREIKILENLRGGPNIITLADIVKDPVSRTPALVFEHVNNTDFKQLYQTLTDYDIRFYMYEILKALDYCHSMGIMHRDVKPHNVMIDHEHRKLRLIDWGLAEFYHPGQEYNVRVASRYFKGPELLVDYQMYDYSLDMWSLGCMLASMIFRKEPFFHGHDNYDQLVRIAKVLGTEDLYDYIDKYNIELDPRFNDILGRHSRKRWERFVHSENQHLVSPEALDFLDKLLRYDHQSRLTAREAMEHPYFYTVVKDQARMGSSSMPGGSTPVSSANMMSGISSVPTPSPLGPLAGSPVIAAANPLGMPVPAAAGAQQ
T1 sequence (P67870 whole entry partner): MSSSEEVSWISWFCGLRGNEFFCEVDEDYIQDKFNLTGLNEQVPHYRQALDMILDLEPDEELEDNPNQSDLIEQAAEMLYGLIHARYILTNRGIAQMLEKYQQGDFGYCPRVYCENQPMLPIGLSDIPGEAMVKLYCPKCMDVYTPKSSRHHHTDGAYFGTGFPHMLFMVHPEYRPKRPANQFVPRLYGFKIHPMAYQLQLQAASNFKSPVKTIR
Protocol: CK2 Kinase Assay was conducted using the protocol as described in Pierre F. et al; J. Med. Chem. 2011, 54, 635-654. The tested compounds in aqueous solution were added at a volume of 10 μL to a reaction mixture comprising 10 μL of assay dilution buffer (ADB; 20 mM MOPS, pH 7.2, 25 mM β-glycerol phosphate, 5 mM EGTA, 1 mM sodium orthovanadate, and 1 mM dithiothreitol), 10 μL of substrate peptide (RRRDDDSDDD, dissolved in ADB at a concentration of 1 mM), 10 μL of recombinant human CK2 (RRββ-holoenzyme, 25 ng dissolved in ADB; Millipore). Reactions were initiated by the addition of 10 μL of ATP solution (90% 75 mMMgCl2, 75 µM ATP (final ATP concentration: 15 μM) dissolved in ADB; 10% [γ-33P] ATP (stock 1 mCi/100 μL; 3000 Ci/mmol (Perkin-Elmer) and maintained for 10 min at 30° C. The reactions were quenched with 100 μL of 0.75% phosphoric acid and then transferred to and filtered through a phosphor cellulose filter plate (Millipore). After washing each well five times with 0.75% phosphoric acid, the plate was dried under vacuum for 5 min and, following the addition of 15 μL of scintillation fluid to each well, the residual radioactivity was measured using a Wallac luminescence counter. The IC50 values were derived from eight concentrations of test inhibitors.

PC3 (prostate) = assay: In vitro cytotoxic activity (MTT) assay, PC3; format: cell-based; conditions: Homo sapiens; cells exposed for 96 hours; 50% inhibition of cell proliferation; read-out: Cytotoxicity activity IC50, PC3 (prostate)
Protocol: as §1

MDA-MB-231 (breast) = assay: In vitro cytotoxic activity (MTT) assay, MDA-MB-231; format: cell-based; conditions: Homo sapiens, cells exposed for 96 hours, 50% inhibition of cell proliferation, read-out: Cytotoxicity activity IC50, MDA-MB-231 (breast)
Protocol: as §1

H1299 (lung) = assay: In vitro cytotoxic activity (MTT) assay, H1299; format: cell-based; conditions: Homo sapiens, NCI-H1299; cells exposed for 96 hours; 50% inhibition of cell proliferation; read-out: Cytotoxicity activity IC50, H1299 (lung)
Protocol: as §1

MIAPaCa-2 (pancreas) = assay: In vitro cytotoxic activity (MTT) assay, MIAPaCa-2; format: cell-based; conditions: Homo sapiens, MIA PaCa-2; cells exposed for 96 hours; 50% inhibition of cell proliferation; read-out: Cytotoxicity activity IC50, MIAPaCa-2 (pancreas)
Protocol: as §1

IC50 [1]: 295 nM
Compound: Clc1cccc(Nc2nc3cnccc3c3c2[nH]c2cnccc23)c1 [Compound 1, N-(3-chlorophenyl)-7H-pyrido[4′,3′:4,5]pyrrolo[2,3-c][1,7]naphthyridin-6-amine]
IC50 (HCT116 (colon)): 1100 nM | IC50 (MCF7 (breast)): 4900 nM | IC50 (A375 (melanoma)): 4200 nM | IC50 (HL60 (leukemia)): 3600 nM | IC50 (PC3 (prostate)): 900 nM | IC50 (MDA-MB-231 (breast)): 4100 nM | IC50 (H1299 (lung)): 1600 nM | IC50 (MIAPaCa-2 (pancreas)): 2800 nM
